Test results taken from ChEMBL document CHEMBL1212924 (J Med Chem, 2010).

System: not listed separately
Test: Cmax in rat at 2 mg/kg, po
Assay type: ADME, organism-based
Design: dose 2 mg/kg, route oral
Conditions: in vivo

| Cmax [nM] | Structure (SMILES) |
| --- | --- |
| 18 | CN(C)CCOc1cc(-c2cn[nH]c2)c(F)cc1NC(=O)[C@H]1Cc2ccccc2CN1 |
| 32 | COc1ccc2c(c1)C[C@H](C(=O)Nc1cc(F)c(-c3cn[nH]c3)cc1OCCN(C)C)NC2 |
| 242 | COc1ccc2c(c1)C[C@H](C(=O)Nc1ccc(-c3cn[nH]c3)cc1OCCN(C)C)NC2 |

System: not listed separately
Test: Clearance in rat at 1 mg/kg, iv and 2 mg/kg, po
Assay type: ADME, organism-based
Conditions: in vivo

| clearance [mL/min/kg] | Structure (SMILES) |
| --- | --- |
| 106 | CN(C)CCOc1cc(-c2cn[nH]c2)c(F)cc1NC(=O)[C@H]1Cc2ccccc2CN1 |
| 4.6 | COc1ccc2c(c1)C[C@H](C(=O)Nc1cc(F)c(-c3cn[nH]c3)cc1OCCN(C)C)NC2 |
| 17 | COc1ccc2c(c1)C[C@H](C(=O)Nc1ccc(-c3cn[nH]c3)cc1OCCN(C)C)NC2 |

Molecular target: CYP3A4 (Homo sapiens, UniProt P08684)
Sequence (P08684 whole entry): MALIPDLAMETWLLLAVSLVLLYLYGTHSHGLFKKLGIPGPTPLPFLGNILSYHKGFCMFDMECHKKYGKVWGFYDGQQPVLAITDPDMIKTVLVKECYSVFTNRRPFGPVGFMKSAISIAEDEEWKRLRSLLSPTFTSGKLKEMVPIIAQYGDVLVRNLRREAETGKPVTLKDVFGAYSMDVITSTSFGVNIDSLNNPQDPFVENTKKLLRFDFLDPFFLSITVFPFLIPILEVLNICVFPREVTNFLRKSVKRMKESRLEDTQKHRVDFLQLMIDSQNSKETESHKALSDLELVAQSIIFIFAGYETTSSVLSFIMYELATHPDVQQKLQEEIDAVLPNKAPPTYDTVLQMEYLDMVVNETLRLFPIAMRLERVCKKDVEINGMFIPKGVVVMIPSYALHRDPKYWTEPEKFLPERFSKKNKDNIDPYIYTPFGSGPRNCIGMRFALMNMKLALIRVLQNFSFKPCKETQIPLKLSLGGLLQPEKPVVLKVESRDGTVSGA
Test: Inhibition of CYP3A4 at 10 uM
Assay type: ADME
Conditions: not given

| inhibition at 10 µM [%] | Structure (SMILES) |
| --- | --- |
| 18 | CN(C)CCOc1cc(-c2cn[nH]c2)c(F)cc1NC(=O)[C@H]1Cc2ccccc2CN1 |
| -3 | COc1ccc2c(c1)C[C@H](C(=O)Nc1ccc(-c3cn[nH]c3)cc1OCCN(C)C)NC2 |

System: not listed separately
Test: Half life in rat at 1 mg/kg, iv and 2 mg/kg, po
Assay type: ADME, organism-based
Conditions: in vivo

| half-life [h] | Structure (SMILES) |
| --- | --- |
| 2.7 | CN(C)CCOc1cc(-c2cn[nH]c2)c(F)cc1NC(=O)[C@H]1Cc2ccccc2CN1 |
| 1.5 | COc1ccc2c(c1)C[C@H](C(=O)Nc1cc(F)c(-c3cn[nH]c3)cc1OCCN(C)C)NC2 |
| 5.5 | COc1ccc2c(c1)C[C@H](C(=O)Nc1ccc(-c3cn[nH]c3)cc1OCCN(C)C)NC2 |

Molecular target: Rho-associated protein kinase 1 (Homo sapiens, UniProt Q13464)
Sequence (Q13464 whole entry): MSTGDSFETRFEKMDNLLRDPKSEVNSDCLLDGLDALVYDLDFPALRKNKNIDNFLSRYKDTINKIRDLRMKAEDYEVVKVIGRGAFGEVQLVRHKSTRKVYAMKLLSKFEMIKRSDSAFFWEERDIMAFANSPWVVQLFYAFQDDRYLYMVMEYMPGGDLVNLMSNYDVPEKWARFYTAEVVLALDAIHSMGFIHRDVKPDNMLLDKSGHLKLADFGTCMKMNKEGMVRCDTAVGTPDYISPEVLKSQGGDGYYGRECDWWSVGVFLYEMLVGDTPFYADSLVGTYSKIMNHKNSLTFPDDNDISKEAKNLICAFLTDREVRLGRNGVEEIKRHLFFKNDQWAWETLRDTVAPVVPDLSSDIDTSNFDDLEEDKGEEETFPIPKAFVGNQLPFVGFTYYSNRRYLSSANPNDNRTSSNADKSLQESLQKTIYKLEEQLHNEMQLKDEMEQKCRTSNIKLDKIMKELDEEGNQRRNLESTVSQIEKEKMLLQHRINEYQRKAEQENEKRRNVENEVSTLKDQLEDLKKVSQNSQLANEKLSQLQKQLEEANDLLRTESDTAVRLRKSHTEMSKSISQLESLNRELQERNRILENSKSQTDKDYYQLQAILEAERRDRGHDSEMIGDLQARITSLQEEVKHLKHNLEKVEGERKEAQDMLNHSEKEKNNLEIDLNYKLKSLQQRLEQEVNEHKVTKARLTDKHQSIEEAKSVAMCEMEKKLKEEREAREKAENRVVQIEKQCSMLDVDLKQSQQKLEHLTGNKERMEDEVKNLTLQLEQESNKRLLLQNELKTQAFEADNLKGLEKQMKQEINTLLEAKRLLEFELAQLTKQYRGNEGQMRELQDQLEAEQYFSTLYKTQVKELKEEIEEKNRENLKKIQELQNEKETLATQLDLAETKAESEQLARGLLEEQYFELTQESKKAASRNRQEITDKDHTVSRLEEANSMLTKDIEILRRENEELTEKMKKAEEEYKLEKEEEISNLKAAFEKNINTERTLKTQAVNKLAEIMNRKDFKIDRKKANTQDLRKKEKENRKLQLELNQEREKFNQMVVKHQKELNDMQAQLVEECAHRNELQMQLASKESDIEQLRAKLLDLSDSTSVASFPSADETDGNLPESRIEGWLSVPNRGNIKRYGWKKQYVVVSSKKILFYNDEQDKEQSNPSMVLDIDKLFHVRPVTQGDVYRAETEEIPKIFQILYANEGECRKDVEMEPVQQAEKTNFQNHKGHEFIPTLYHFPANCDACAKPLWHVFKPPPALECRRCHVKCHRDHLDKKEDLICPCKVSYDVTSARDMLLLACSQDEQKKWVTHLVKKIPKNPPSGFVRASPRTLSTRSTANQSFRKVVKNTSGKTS
Test: not given
Conditions: not given

| IC50 [nM] | Structure (SMILES) |
| --- | --- |
| 33 | CN(C)CCOc1cc(-c2cn[nH]c2)c(F)cc1NC(=O)[C@H]1Cc2ccccc2CN1 |
| 48 | COc1ccc2c(c1)C[C@H](C(=O)Nc1ccc(-c3cn[nH]c3)cc1OCCN(C)C)NC2 |

System: not listed separately
Test: in vitro
Conditions: human, liver microsomes
Description: Half life in human liver microsome at 2 mg/mL

| half-life [h] | Structure (SMILES) |
| --- | --- |
| 0.75 | CN(C)CCOc1cc(-c2cn[nH]c2)c(F)cc1NC(=O)[C@H]1Cc2ccccc2CN1 |
| 0.85 | COc1ccc2c(c1)C[C@H](C(=O)Nc1cc(F)c(-c3cn[nH]c3)cc1OCCN(C)C)NC2 |

Molecular target: Mitogen-activated protein kinase 10 (Homo sapiens, UniProt P53779)
Sequence (P53779 whole entry): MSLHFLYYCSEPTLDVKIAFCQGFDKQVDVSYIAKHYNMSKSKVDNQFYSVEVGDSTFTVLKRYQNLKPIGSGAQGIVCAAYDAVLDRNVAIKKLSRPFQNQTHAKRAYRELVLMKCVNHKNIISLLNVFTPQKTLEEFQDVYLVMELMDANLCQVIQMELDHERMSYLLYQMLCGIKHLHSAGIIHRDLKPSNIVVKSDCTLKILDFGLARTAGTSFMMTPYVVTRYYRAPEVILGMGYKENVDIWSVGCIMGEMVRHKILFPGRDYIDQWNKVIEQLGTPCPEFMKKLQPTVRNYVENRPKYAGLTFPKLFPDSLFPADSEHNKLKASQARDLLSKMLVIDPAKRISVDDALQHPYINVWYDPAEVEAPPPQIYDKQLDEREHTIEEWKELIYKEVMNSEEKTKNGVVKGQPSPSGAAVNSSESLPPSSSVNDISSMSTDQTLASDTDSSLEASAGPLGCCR
Test: not given
Conditions: not given

| IC50 [nM] | Structure (SMILES) |
| --- | --- |
| > 20000 | CN(C)CCOc1cc(-c2cn[nH]c2)c(F)cc1NC(=O)[C@H]1Cc2ccccc2CN1 |
| > 20000 | COc1ccc2c(c1)C[C@H](C(=O)Nc1ccc(-c3cn[nH]c3)cc1OCCN(C)C)NC2 |

System: not listed separately
Test: Inhibition of p38
Conditions: not given

| IC50 [nM] | Structure (SMILES) |
| --- | --- |
| > 20000 | CN(C)CCOc1cc(-c2cn[nH]c2)c(F)cc1NC(=O)[C@H]1Cc2ccccc2CN1 |
| > 20000 | COc1ccc2c(c1)C[C@H](C(=O)Nc1ccc(-c3cn[nH]c3)cc1OCCN(C)C)NC2 |

System: not listed separately
Test: Oral bioavailability in rat at 2 mg/kg
Assay type: ADME, organism-based
Conditions: in vivo

| bioavailability [%] | Structure (SMILES) |
| --- | --- |
| 16 | CN(C)CCOc1cc(-c2cn[nH]c2)c(F)cc1NC(=O)[C@H]1Cc2ccccc2CN1 |
| 0.3 | COc1ccc2c(c1)C[C@H](C(=O)Nc1cc(F)c(-c3cn[nH]c3)cc1OCCN(C)C)NC2 |
| 28 | COc1ccc2c(c1)C[C@H](C(=O)Nc1ccc(-c3cn[nH]c3)cc1OCCN(C)C)NC2 |

Molecular target: CYP2D6 (Homo sapiens, UniProt P10635)
Sequence (P10635 whole entry): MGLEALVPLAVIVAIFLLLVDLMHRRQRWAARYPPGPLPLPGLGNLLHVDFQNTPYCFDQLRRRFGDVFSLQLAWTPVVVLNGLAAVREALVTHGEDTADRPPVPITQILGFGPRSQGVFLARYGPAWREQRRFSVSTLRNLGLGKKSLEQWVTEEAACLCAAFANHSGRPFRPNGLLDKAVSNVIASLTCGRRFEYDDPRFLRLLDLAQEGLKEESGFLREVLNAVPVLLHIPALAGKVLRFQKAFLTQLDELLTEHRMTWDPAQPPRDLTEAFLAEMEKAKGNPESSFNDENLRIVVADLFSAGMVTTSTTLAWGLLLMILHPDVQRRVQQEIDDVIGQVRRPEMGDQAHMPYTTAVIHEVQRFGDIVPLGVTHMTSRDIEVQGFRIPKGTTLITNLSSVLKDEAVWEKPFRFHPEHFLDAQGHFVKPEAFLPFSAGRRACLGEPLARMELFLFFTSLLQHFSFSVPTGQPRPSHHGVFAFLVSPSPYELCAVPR
Test: Inhibition of CYP2D6 at 10 uM
Assay type: ADME
Conditions: not given

| inhibition at 10 µM [%] | Structure (SMILES) |
| --- | --- |
| 77 | CN(C)CCOc1cc(-c2cn[nH]c2)c(F)cc1NC(=O)[C@H]1Cc2ccccc2CN1 |
| 40 | COc1ccc2c(c1)C[C@H](C(=O)Nc1ccc(-c3cn[nH]c3)cc1OCCN(C)C)NC2 |

Molecular target: T1, CYP1A2 (Homo sapiens, UniProt P05177)
T1 sequence (P05177 whole entry): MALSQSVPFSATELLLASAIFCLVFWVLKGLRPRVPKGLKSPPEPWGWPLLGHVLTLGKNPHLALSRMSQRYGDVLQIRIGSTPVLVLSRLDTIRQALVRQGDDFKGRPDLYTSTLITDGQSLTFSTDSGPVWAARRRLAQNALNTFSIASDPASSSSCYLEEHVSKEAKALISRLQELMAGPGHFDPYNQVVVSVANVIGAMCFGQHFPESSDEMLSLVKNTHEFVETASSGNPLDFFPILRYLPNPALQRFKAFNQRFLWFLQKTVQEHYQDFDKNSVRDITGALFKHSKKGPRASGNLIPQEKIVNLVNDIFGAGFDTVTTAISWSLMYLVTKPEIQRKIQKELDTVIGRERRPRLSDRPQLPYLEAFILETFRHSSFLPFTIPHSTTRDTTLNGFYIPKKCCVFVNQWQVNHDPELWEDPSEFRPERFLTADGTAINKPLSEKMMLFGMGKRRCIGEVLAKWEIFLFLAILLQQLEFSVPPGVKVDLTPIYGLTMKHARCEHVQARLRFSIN
Test: Inhibition of CYP1A2 at 10 uM
Assay type: ADME
Conditions: not given

| inhibition at 10 µM [%] | Structure (SMILES) |
| --- | --- |
| 31 | CN(C)CCOc1cc(-c2cn[nH]c2)c(F)cc1NC(=O)[C@H]1Cc2ccccc2CN1 |
| 21 | COc1ccc2c(c1)C[C@H](C(=O)Nc1ccc(-c3cn[nH]c3)cc1OCCN(C)C)NC2 |

System: not listed separately
Test: Volume of distribution in rat at 1 mg/kg, iv and 2 mg/kg, po
Assay type: ADME, organism-based
Conditions: in vivo

| Vd [L/kg] | Structure (SMILES) |
| --- | --- |
| 24 | CN(C)CCOc1cc(-c2cn[nH]c2)c(F)cc1NC(=O)[C@H]1Cc2ccccc2CN1 |
| 0.49 | COc1ccc2c(c1)C[C@H](C(=O)Nc1cc(F)c(-c3cn[nH]c3)cc1OCCN(C)C)NC2 |
| 7.2 | COc1ccc2c(c1)C[C@H](C(=O)Nc1ccc(-c3cn[nH]c3)cc1OCCN(C)C)NC2 |

Molecular target: Serine/threonine-protein kinase MRCK alpha (Homo sapiens, UniProt Q5VT25)
Sequence (Q5VT25 whole entry): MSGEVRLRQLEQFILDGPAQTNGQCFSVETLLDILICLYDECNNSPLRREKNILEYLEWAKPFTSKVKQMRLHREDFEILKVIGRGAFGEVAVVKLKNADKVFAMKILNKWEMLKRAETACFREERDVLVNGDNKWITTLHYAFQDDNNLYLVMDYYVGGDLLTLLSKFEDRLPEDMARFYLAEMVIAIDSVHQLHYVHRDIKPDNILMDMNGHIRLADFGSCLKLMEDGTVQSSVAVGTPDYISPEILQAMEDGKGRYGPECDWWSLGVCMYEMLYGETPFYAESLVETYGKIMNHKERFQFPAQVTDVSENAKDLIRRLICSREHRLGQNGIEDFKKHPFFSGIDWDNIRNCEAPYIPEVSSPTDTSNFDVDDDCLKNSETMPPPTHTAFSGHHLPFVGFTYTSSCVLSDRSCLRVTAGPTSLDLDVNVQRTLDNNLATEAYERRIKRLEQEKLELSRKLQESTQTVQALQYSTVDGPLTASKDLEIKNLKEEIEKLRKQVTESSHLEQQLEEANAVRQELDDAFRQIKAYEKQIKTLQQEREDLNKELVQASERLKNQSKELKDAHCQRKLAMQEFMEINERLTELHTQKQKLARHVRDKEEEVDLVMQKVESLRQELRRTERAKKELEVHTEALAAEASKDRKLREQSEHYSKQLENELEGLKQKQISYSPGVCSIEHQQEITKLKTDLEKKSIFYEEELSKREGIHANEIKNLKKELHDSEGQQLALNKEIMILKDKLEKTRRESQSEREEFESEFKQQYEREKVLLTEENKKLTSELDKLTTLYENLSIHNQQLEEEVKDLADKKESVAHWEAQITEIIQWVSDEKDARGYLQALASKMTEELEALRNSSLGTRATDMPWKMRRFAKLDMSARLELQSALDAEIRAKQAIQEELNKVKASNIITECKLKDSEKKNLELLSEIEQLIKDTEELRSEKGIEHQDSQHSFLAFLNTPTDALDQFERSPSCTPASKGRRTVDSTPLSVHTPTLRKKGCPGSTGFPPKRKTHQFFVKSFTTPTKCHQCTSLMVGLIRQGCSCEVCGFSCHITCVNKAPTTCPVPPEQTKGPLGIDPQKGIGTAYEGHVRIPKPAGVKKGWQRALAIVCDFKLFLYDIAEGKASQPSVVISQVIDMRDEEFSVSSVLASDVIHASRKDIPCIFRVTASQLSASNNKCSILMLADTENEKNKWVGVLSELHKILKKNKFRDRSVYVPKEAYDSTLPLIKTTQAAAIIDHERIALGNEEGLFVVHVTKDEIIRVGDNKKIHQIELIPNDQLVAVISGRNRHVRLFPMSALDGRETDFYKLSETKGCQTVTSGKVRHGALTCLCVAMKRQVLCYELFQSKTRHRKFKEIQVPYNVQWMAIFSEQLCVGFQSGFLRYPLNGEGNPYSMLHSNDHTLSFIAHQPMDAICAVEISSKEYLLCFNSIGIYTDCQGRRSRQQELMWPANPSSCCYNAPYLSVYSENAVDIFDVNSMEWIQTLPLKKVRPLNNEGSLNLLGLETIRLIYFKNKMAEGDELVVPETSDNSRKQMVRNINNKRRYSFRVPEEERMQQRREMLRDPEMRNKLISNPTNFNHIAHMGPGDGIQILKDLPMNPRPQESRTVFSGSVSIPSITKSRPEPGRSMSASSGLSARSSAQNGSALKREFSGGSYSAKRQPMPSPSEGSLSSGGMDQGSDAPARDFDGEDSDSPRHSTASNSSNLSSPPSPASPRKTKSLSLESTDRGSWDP
Test: Inhibition of MRCKalpha
Conditions: not given

| IC50 [nM] | Structure (SMILES) |
| --- | --- |
| 333 | CN(C)CCOc1cc(-c2cn[nH]c2)c(F)cc1NC(=O)[C@H]1Cc2ccccc2CN1 |
| 5350 | COc1ccc2c(c1)C[C@H](C(=O)Nc1ccc(-c3cn[nH]c3)cc1OCCN(C)C)NC2 |

Molecular target: CYP2C9 (Homo sapiens, UniProt P11712)
Sequence (P11712 whole entry): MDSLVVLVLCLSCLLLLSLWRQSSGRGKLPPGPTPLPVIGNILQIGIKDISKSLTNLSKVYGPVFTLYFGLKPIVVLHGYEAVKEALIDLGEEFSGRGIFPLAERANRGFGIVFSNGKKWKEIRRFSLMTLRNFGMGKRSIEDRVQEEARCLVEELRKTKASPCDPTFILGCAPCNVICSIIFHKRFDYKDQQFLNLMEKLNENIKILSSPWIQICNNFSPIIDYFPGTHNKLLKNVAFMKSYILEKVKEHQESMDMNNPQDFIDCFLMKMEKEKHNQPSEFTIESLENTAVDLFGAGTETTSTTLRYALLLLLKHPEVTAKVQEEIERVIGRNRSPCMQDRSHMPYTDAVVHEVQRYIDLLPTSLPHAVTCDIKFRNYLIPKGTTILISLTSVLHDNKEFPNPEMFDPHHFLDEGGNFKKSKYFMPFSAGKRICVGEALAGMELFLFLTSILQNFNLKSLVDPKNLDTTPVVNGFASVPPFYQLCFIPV
Test: Inhibition of CYP2C9 at 10 uM
Assay type: ADME
Conditions: not given

| inhibition at 10 µM [%] | Structure (SMILES) |
| --- | --- |
| 62 | CN(C)CCOc1cc(-c2cn[nH]c2)c(F)cc1NC(=O)[C@H]1Cc2ccccc2CN1 |
| 31 | COc1ccc2c(c1)C[C@H](C(=O)Nc1ccc(-c3cn[nH]c3)cc1OCCN(C)C)NC2 |
